The results in this text go back to patent publication US6630124B1, “Combination therapy with VIP antagonist” (Ramot-University Authority for Applied Research and …, priority 1998, dated 2003).

Values after ≈ are worked out from the molar mass of the structure shown. “Also recorded” adds a separate entry of the source. Read-outs that look alike come from different tables or passages of the source.

Data set [1] has as its system CAPAN pancreatic cancer cell line. Put plainly: MTT assay, Taxol with or without SNVIPhyb. The format is cell-based. The source says: (§1) The ability of SNVIPhyb to inhibit cancer growth was investigated.
A general note: Tetrazolium dyes change colour on reduction, which living cells bring about.

The subject of data set [2] is NCI-H1299 lung cancer cell line. Put plainly: MTT assay, Taxol with or without SNVIPhyb. The format is cell-based. To be noted: Homo sapiens.
Excerpt: as §1

Data set [3] has as its system NCI-H157 lung cancer cell line. Put plainly: MTT assay, Taxol with or without SNVIPhyb. Format: cell-based. To be noted: Homo sapiens.
Excerpt: as §1

Data set [4] has as its system MCF-7 breast cancer cells. Put plainly: MTT assay, Taxol with or without SNVIPhyb. Format: cell-based. To be noted: for IC50: Homo sapiens, MCF7.
Excerpt: as §1

The subject of data set [5] is PC-3 prostate cancer cell line. Briefly: MTT assay, Taxol with or without SNVIPhyb. Format: cell-based.
Excerpt: as §1

Data set [6] relates to NCI-H727 non-small cell lung cancer (carcinoid). Put plainly: MTS cell proliferation assay, SNH and chemotherapy. Format: cell-based. The conditions noted are these: 8 μM SNH 2 h, then Taxol 0.003-1 μg/ml 4 h, then fresh medium 66 h.
Data set [7] deals with MDA-MB231 xenografts. Put plainly: MDA-MB231 breast cancer xenografts in nude mice. Format: in vivo, Balb/c nude mice. To be noted: after 4 weeks; VIPhyb 10 μg/day s.c., Taxol 1.5 mg i.p. once; PBS control 1121 mm^3. How it is done: To test the proliferative aspects of VIPhybrid analogs in vivo, nude mice bearing breast cancer xenografts were utilized. Female athymic Balb/c nude mice, 4-5 weeks old, were housed in a pathogen-free temperature controlled isolation room and the diet consisted of autoclaved rodent chow and autoclaved water given ad libitum. MDA-MB231 cells (1×10^7) were injected into the right flank of each mouse subcutaneously. […] PBS (100 μl) or VIPhyb analogs (10 μg/day) were injected subcutaneously adjacent to the tumor. Taxol was injected once (1.5 mg i.p.) after 2 weeks. The tumor volume (height×width×depth) was determined twice weekly by calipers and recorded.

The subject of data set [8] is NCI-H727 non-small cell lung cancer (carcinoid). Put plainly: MTS cell proliferation assay, SNH and chemotherapy. The conditions noted are these: for nature of the combined effect with SNH: combination with SNH. The format is cell-based. How it is done:
NCI-H727 and LNCaP were grown in RPMI 1640 medium supplemented with 10% heat inactivated FCS, L-glutamine and antibiotics. HT-29 and CT-26 were grown in DMEM medium supplemented with 10% heat-inactivated FCS (fetal calf serum), L-glutamine and antibiotics. The cells were cultured in 5% CO2/95% air at […] and used during their exponential growth phase. Routinely, the cells which are adherent, were split when a subconfluent monolayer was formed. In different experiments, various concentration of FCS were used. For growth inhibition experiments, subconfluent adherent cells were washed with PBS and treated with trypsin/versene. The cells were pelleted and resuspended in medium to a final concentration of 75,000 cells/mL for NCI-H727. 50,000 cells/mL for LNCaP and HT-29 and 25000 cells/mL for CT-26. These different concentrations were used in order to avoid confluence in the wells at the end of the experiment and correspond to the different doubling times of the cell lines. On day 0, cells suspensions […] were dispensed using a multi-channel pipet into the individual wells of a 96-well tissue culture plate (Nuncion, Nunc Brand Products). […] Cells were incubated for 24 hours in a humidified atmosphere of 95% air/5% CO2 at 37° C. before treatment. On day 1, the cells were treated with different drugs and schedules and maintained under the same conditions. On day 4, viable cell number was determined by a modified MTT assay i.e., MTS non-radioactive cell proliferation assay (Promega). […] Results were finally expressed as percentage of the control, which was obtained from the samples with no drug treatment. Dose-response curves were plotted using a Sigma-Plot software and statistically analyzed using Student test. To determine the effect of the lipophilic VIP antagonist SNH on cell proliferation, cells plated in 96-well microplates for 24 hours as described, were treated with various concentrations of SNH. The peptide was diluted in PBS and […] of the peptide solution was added to each well for a final concentration of the peptide between 10^−510^−9 M. The solvent was added to the control wells. […] A dose-response curve was obtained at concentrations ranging from 2 μM-10 μM (see, FIG. 2). […] The effects of an 8 hours treatment were slightly less, showing that most of the effect is in the initial hours of exposure and much more dose than time dependent. […] For the experiments with the combinations of VIP antagonists and chemotherapeutic agents, on day 0, the cells were plated for 24 hours in medium supplemented with 5% FCS. On day 1, the peptide was added to the wells followed 1 hour later by the chemotherapeutic agents. […] The chemotherapeutic drugs were tested over 7 concentrations, covering as much as possible of the dose response curve of each individual drug. 24 hours later, the medium was exchanged and the cells incubated under the same conditions for another 48 hours. On day 4 the number of viable cells was determined by MTS assay.

In data set [9] the test system is lung (NCI-H157 and NCI-H1299), breast (MCF-7), pancreatic (CAPAN) and prostate (PC-3) cancer cell lines. Put plainly: MTT assay, Taxol with or without SNVIPhyb, summary over epithelial cancer cell lines.
Excerpt: The effects of SNVIPhyb were then investigated in the presence of Taxol, which affects microtubules, causing dividing cells to arrest in the mitosis (M) phase of growth.
The effect of SNVIPhyb was investigated on other epithelial cancer cell lines.
For data set [10], the system named is HT-29 human colon cancer. Put plainly: MTS cell proliferation assay, SNH and chemotherapy. The format is cell-based. The conditions noted are these: HT-29, SNH and CPT-11 (FIG. 11). How it is done: NCI-H727 and LNCaP were grown in RPMI 1640 medium supplemented with 10% heat inactivated FCS, L-glutamine and antibiotics. HT-29 and CT-26 were grown in DMEM medium supplemented with 10% heat-inactivated FCS (fetal calf serum), L-glutamine and antibiotics. The cells were cultured in 5% CO2/95% air at […] and used during their exponential growth phase. Routinely, the cells which are adherent, were split when a subconfluent monolayer was formed. In different experiments, various concentration of FCS were used. For growth inhibition experiments, subconfluent adherent cells were washed with PBS and treated with trypsin/versene. The cells were pelleted and resuspended in medium to a final concentration of 75,000 cells/mL for NCI-H727. 50,000 cells/mL for LNCaP and HT-29 and 25000 cells/mL for CT-26. These different concentrations were used in order to avoid confluence in the wells at the end of the experiment and correspond to the different doubling times of the cell lines. […] On day 4, viable cell number was determined by a modified MTT assay i.e., MTS non-radioactive cell proliferation assay (Promega). […] Results were finally expressed as percentage of the control, which was obtained from the samples with no drug treatment. Dose-response curves were plotted using a Sigma-Plot software and statistically analyzed using Student test. […] On day 4 the number of viable cells was determined by MTS assay.

Data set [11] deals with cell lines derived from colon cancer and prostate cancer. Put plainly: MTS colorimetric proliferation assay, VIP antagonist with chemotherapeutic agents (Example I). Format: cell-based. To be noted: combination with stearyl-Nle17-neurotensis 6-11 VIP 7-28. On the procedure:
Assays were performed with cell lines derived from colon cancer and prostate cancer. Proliferation was assessed using the MTS colorimetric assay of mitochondrial function for living cells. The VIP antagonist (stearyl-Nle17-neurotensis 6-11 VIP 7-28) was used.

In data set [12] the test system is CT-26 murine colon cancer. Put plainly: MTS cell proliferation assay, SNH and chemotherapy. Format: cell-based. To be noted: CT-26, SNH and CPT-11 (FIG. 10). On the procedure: NCI-H727 and LNCaP were grown in RPMI 1640 medium supplemented with 10% heat inactivated FCS, L-glutamine and antibiotics. HT-29 and CT-26 were grown in DMEM medium supplemented with 10% heat-inactivated FCS (fetal calf serum), L-glutamine and antibiotics. The cells were cultured in 5% CO2/95% air at […] and used during their exponential growth phase. Routinely, the cells which are adherent, were split when a subconfluent monolayer was formed. In different experiments, various concentration of FCS were used.
For growth inhibition experiments, subconfluent adherent cells were washed with PBS and treated with trypsin/versene. The cells were pelleted and resuspended in medium to a final concentration of 75,000 cells/mL for NCI-H727. 50,000 cells/mL for LNCaP and HT-29 and 25000 cells/mL for CT-26. […]
On day 4, viable cell number was determined by a modified MTT assay i.e., MTS non-radioactive cell proliferation assay (Promega). Briefly, […] of freshly prepared MTS/PMS solution was added to each individual well and after 1-3 hours of incubation (the optimal time was determined for each cell line) absorbance at 490 nm was measured using a multiscan plate reader. Results were finally expressed as percentage of the control, which was obtained from the samples with no drug treatment. Dose-response curves were plotted using a Sigma-Plot software and statistically analyzed using Student test. […]

For data set [13], the system named is MCF-7 cells. Put plainly: MTT colorimetric assay, breast cancer cells (Example 6). Format: cell-based. The conditions noted are these: for Absorbance at 570 nM: MCF-7, MTT, 5 days. On the procedure: The ability of VIP receptor antagonists to alter the growth of breast cancer cells was investigated in vitro using the MTT colorimetric. The semiautomated MTT assay measures reduction of a tetrazolium compound by tumor cells to formazan. The optical density at 570 nm was determined for 8 wells at each inhibitor concentration. Seeding densities were 5×10^4 cells/well and cells were grown in 96 well plates for 5 days.

The subject of data set [14] is VIP receptor (glioblastoma cells). Briefly: cAMP in glioblastoma cells, basal and VIP-stimulated. The format is cell-based. The conditions noted are these: 10 nM VIP. The source says:
The effects of VIP receptor antagonists on glioblastoma cell lines were investigated.

For `CC(=O)O[C@H]1C(=O)[C@@]2(C)[C@H]([C@H](OC(=O)c3ccccc3)[C@]3(O)C[C@H](OC(=O)[C@H](O)[C@@H](NC(=O)c4ccccc4)c4ccccc4)C(C)=C1C3(C)C)[C@]1(OC(C)=O)CO[C@@H]1C[C@@H]2O` [Taxol], the IC50 in data set [1] (10 μM SNVIPhyb, read-out: IC50 with 10 μM SNVIPhyb) turned out to be 3 µg/mL (≈ 3.51 µM); in data set [1] (Taxol alone, read-out: IC50), 10 µg/mL (≈ 11.7 µM); in [2] (NCI-H1299, 10 μM SNVIPhyb, read-out: IC50 with 10 μM SNVIPhyb), 3 µg/mL (≈ 3.51 µM); in [2] (NCI-H1299, Taxol alone, read-out: IC50), 8 µg/mL (≈ 9.37 µM); in [3] (NCI-H157, 10 μM SNVIPhyb, read-out: IC50 with 10 μM SNVIPhyb), 2.5 µg/mL (≈ 2.93 µM); in data set [3] (NCI-H157, Taxol alone, read-out: IC50), 10 µg/mL (≈ 11.7 µM). In addition, the IC50 in data set [4] (MCF-7, 3 μM SNVIPhyb, read-out: IC50 in the presence of 3 μM SNVIPhyb) is 24 µg/mL; in [4] (MCF-7, 10 μM SNVIPhyb, read-out: IC50 with 10 μM SNVIPhyb), 2 µg/mL (≈ 2.34 µM); in data set [4] (MCF-7, Taxol alone, read-out: IC50) it was 12 µg/mL (≈ 14.1 µM); in data set [5] (PC-3, 10 μM SNVIPhyb, read-out: IC50 with 10 μM SNVIPhyb), 5 µg/mL (≈ 5.86 µM); in [5] (PC-3, Taxol alone, read-out: IC50) it was 15 µg/mL (≈ 17.6 µM); in data set [9] (read-out: IC50 values over the cell lines) it was 8 to 15 µg/mL (≈ 9.37 to 17.6 µM). Further, the IC50 in [9] (read-out: IC50 values over the cell lines in the presence of 10 μM SNVIPhyb) lay in the range of 2.5 to 5 µg/mL. For the same compound, in data set [4] (MCF-7, combination with SNVIPhyb), the “increase of cytotoxicity by SNVIPhyb” value was “increases the cytotoxicity”. Besides, the “effect on MCF-7 cells” value in data set [4] (Taxol at 1 μg/mL) is reported as “little effect”. The “reduction of the IC50 of Taxol by SNH” value in [6] is reported as “about 6 fold”. Further, the “tumor volume (height×width×depth)” value in data set [7] stood at 613 mm^3. The “nature of the combined effect with SNH” value in data set [8] was “very effective; also recorded: synergistic”. In data set [9] (combination with SNVIPhyb), the “interaction with SNVIPhyb at inhibiting cancer cell proliferation” value was “synergistic”. Besides, the “increase of potency in the presence of SNVIPhyb” value in data set [9] (epithelial cancer cells) is recorded as 3-6 fold.

On to `CCc1c2c(nc3ccc(OC(=O)N4CCC(N5CCCCC5)CC4)cc13)-c1cc3c(c(=O)n1C2)COC(=O)[C@]3(O)CC` [CPT-11], for which the “effect of the combination with SNH” value in [10] and in data set [12] was “enhancing effect” throughout. In addition, the “effect of the combination with the VIP antagonist” value in data set [11] was “synergistic”. Further, the “enhancement of the antiproliferative activity of the chemotherapeutic agent by the lipophilic VIP antagonist” value in data set [11] was “enhance the antiproliferative activity”. Moreover, the “reduction of the IC50 of the chemotherapeutic agent by SNH” value in data set [8] (5 μM SNH, NCI-H727) was “at least two-fold”. Also, the “nature of the combined effect with SNH” value in data set [8] is reported as “synergistic”.

In the case of “KPRRPYTDNYTRLRKQMAVKKYLNSILN [VIPhyb, earlier hybrid VIP antagonist: neurotensin 6-11 joined to VIP 7-28]”, the “Absorbance at 570 nM” value in [13] (1 μM) is on record as “.417 ± .064”; in [13] (3 μM), “.353 ± .048”; in [13] (10 μM), “.317 ± .030”. The “inhibition of MCF-7 proliferation” value in data set [13] (10 μM, MTT assay) is recorded as “significantly inhibited”. Further, the “tumor volume (height×width×depth)” value in [7] is listed as 508 mm^3. For the same compound, the “order of peptide potency, inhibition of VIP-stimulated cAMP” value in data set [14] is on record as “(SN)VIPhybrid>VIP hybrid >PTC4495”.

For orientation: IC50 means the concentration that inhibits the measured activity by half.
